Values after ≈ are worked out from the molar mass of the structure shown. Where two headings read alike, the source gives them in different places.
Experiments:
[1] = tested on: clinical strains (S. aureus, S. epidermidis, E. coli, K. pneumoniae, P. aeruginosa); assay: MIC ranges over the panel of clinical strains; type: cell-based
Experimental: In the next stage of the experiment, 8 of 11 compounds were selected for a clinical strain activity evaluation against S. aureus, S. epidermidis, E. coli, K. pneumoniae, and P. aeruginosa. […] Additionally, all three inhibited the growth of all clinical Staphylococci panels: S. aureus (T5592; T5591) and S. epidermidis (5253; 4243) with MIC values of 0.8 μg/mL.
The antimicrobial assays were conducted using reference strains of bacteria derived from international microbe collections: American Type Culture Collection (ATCC) and National Collection of Type Culture (NCTC). The following standard strains of bacteria were used: Gram-positive—Staphylococcus aureus NCTC 4163, Staphylococcus aureus ATCC 25923, Staphylococcus aureus ATCC 6538, Staphylococcus aureus ATCC 29213, Staphylococcus epidermidis ATCC 12228, Staphylococcus epidermidis ATCC 35984, Gram-negative: Escherichia coli ATCC 25922, Pseudomonas aeruginosa ATCC 15442. Clinical strains of bacteria used in this study: Gram-positive: Staphylococcus epidermidis 5253, Staphylococcus epidermidis 4243, Staphylococcus aureus T5592, Staphylococcus aureus T5591 and Gram-negative: Escherichia coli 520, Escherichia coli 600, Klebsiella pneumoniae 510 and Pseudomonas aeruginosa 659 were obtained from the collection of the Department of Pharmaceutical Microbiology, Medical University of Warsaw, Poland and they were isolated from different biological materials taken from the patients hospitalized in the Warsaw Medical University hospitals. Antimicrobial activity was examined by the minimal inhibitory concentration (MIC) method under standard procedures provided by CLSI with some modifications. MIC was determined by the two-fold serial broth microdilution method in 96-well microtitration plates using Mueller–Hinton II broth medium (Becton Dickinson, Franklin Lakes, NJ, USA). The final inoculum of all studied bacteria was 10^6 CFU/mL (colony forming unit per milliliter). The stock solution of tested compounds was prepared in dimethyl sulfoxide (DMSO) and diluted to a maximum of 1% of solvent content with a sterile medium.

[2] = molecular target: S. aureus DNA gyrase (Staphylococcus aureus, UniProt P0A0K8+P20831); assay: DNA gyrase supercoiling assay; type: biochemical; conditions: pBR322, read-out: IC50 ± S.E.M. for DNA Gyrase (converted)
Sequence of S. aureus DNA gyrase (P0A0K8 whole entry): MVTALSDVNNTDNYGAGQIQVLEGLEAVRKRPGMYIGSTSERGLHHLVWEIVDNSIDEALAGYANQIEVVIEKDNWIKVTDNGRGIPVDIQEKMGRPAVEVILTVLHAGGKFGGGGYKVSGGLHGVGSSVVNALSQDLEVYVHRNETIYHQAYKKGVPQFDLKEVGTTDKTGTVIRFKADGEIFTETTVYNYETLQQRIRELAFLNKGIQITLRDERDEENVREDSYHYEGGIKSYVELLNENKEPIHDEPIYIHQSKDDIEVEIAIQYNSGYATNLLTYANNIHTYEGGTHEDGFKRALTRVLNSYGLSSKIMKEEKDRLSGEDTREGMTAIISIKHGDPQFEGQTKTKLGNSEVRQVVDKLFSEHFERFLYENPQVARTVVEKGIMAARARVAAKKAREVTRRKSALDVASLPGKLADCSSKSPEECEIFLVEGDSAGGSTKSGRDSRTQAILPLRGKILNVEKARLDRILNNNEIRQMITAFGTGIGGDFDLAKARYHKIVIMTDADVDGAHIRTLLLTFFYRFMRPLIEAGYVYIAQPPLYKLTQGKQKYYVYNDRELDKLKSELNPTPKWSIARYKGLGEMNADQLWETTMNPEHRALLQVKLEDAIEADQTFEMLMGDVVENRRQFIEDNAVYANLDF
Sequence of S. aureus DNA gyrase (P20831 whole entry): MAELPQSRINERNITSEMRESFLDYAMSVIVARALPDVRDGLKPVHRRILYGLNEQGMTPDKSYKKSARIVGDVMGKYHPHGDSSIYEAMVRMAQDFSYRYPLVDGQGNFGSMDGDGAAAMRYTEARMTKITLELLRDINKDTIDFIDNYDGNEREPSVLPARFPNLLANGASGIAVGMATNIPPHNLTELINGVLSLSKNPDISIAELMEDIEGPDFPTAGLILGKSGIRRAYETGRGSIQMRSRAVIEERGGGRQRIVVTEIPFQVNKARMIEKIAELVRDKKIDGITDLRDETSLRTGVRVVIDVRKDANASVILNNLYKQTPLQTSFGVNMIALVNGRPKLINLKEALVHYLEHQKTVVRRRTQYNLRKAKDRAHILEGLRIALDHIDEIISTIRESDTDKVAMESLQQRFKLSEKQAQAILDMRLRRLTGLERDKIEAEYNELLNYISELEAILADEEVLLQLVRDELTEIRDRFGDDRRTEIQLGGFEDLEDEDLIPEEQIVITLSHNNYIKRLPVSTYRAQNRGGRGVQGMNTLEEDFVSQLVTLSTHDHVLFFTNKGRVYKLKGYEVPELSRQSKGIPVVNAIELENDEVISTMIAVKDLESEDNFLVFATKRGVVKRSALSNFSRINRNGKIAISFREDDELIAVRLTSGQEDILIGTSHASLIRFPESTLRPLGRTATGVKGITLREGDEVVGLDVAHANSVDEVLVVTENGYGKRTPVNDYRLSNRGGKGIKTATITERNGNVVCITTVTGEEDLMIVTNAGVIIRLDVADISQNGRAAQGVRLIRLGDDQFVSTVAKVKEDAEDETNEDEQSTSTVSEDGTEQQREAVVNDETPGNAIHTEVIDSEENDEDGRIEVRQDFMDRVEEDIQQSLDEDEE
Experimental: (§1) Description related to conducted biological studies including cell culture, suitable conditions, and methodology was presented in our previous paper.
Figure 2 The influence of tested compounds on S. aureus DNA gyrase activity. Decreasing amounts of 1, 2, or 3 were incubated with supercoiled pBR322 plasmid DNA (500 ng) and run-on agarose gel. Lane 1: S. aureus DNA gyrase assay with DMSO (control). Lane: 2–5: compound 3 at concentrations 64, 32, 8, 2 μg/mL, respectively. Lane: 6–9: compound 2 at concentrations 64, 32, 8, 2 μg/mL, respectively. Lane: 10–13: compound 1 at concentrations 64, 32, 8, 2 μg/mL, respectively.

[3] = molecular target: S. aureus topoisomerase IV (Staphylococcus aureus, UniProt P0C1S7+P0C1U9); assay: Topoisomerase IV decatenation assay; type: biochemical; conditions: decatenation of kinetoplast DNA, read-out: IC50 ± S.E.M. for Topoisomerase IV (converted)
Sequence of S. aureus topoisomerase IV (P0C1S7 whole entry): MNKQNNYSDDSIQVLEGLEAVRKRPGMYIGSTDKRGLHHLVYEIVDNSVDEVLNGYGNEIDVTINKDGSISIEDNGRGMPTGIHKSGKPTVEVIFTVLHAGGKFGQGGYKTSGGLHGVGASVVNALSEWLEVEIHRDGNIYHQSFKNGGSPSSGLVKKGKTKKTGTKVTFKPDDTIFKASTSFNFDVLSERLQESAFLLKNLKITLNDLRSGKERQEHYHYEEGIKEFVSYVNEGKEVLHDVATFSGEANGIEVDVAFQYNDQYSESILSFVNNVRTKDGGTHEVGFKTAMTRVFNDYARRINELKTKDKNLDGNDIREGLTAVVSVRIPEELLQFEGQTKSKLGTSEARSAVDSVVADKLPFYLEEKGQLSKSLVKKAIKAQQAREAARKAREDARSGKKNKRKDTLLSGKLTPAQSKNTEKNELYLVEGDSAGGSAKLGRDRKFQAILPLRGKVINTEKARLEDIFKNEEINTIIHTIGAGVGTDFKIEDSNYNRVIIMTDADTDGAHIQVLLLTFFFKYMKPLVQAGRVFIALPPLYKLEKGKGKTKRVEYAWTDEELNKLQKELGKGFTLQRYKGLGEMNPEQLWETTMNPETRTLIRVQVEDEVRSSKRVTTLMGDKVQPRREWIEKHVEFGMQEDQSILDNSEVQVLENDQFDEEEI
Sequence of S. aureus topoisomerase IV (P0C1U9 whole entry): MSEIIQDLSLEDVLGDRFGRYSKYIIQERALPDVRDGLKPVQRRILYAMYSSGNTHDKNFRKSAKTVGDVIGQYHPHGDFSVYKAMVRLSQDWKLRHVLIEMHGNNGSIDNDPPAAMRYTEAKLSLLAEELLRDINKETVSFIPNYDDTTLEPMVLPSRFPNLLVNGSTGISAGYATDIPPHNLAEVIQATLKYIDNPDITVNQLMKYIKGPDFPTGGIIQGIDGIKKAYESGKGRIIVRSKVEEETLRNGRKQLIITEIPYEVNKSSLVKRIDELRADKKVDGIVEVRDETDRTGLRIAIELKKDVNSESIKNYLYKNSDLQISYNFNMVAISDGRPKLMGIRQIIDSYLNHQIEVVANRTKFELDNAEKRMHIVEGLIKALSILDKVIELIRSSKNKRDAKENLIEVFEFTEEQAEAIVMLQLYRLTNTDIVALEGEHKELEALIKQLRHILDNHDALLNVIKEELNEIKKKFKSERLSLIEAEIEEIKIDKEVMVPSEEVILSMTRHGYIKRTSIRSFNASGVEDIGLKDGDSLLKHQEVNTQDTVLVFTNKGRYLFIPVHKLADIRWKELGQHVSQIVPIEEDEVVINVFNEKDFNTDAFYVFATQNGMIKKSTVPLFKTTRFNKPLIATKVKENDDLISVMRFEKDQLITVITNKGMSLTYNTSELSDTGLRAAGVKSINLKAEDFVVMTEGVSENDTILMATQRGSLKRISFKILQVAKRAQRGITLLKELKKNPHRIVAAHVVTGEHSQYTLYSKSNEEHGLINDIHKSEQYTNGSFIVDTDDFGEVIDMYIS
Experimental: as §1
Figure 1 The effect of tested compounds on S. aureus topoisomerase IV activity. Decreasing amounts of 1, 2, or 3 were incubated with 200 ng kinetoplast DNA and run-on agarose gel. Lane: 1–5: compound 3 at concentrations 64, 32, 8, 2, 0.5 μg/mL, respectively. Lane: 6–10: compound 2 at concentrations 64, 32, 8, 2, 0.5 μg/mL, respectively. Lane: 11–15: compound 1 at concentrations 64, 32, 8, 2, 0.5 μg/mL, respectively.

[4] = tested on: S. epidermidis ATCC 12228; assay: MIC broth microdilution, standard strain; type: cell-based; conditions: Staphylococcus epidermidis, ATCC12228; S. epidermidis ATCC 12228, standard strain, 19 h at 35 °C; read-out: minimal inhibitory concentration (MIC)
Experimental: (§2) All synthesized compounds were tested in vitro against a set of bacteria, including representative standard Gram-positive and Gram-negative rods. Compounds were screened for their minimal inhibitory concentrations (MICs). […] The antimicrobial assays were conducted using reference strains of bacteria derived from international microbe collections: American Type Culture Collection (ATCC) and National Collection of Type Culture (NCTC). The following standard strains of bacteria were used: Gram-positive-Staphylococcus aureus NCTC 4163, Staphylococcus aureus ATCC 25923, Staphylococcus aureus ATCC 6538, Staphylococcus aureus ATCC 29213, Staphylococcus epidermidis ATCC 12228, Staphylococcus epidermidis ATCC 35984, Gram-negative: Escherichia coli ATCC 25922, Pseudomonas aeruginosa ATCC 15442. Clinical strains of bacteria used in this study: Gram-positive: Staphylococcus epidermidis 5253, Staphylococcus epidermidis 4243, Staphylococcus aureus […], Staphylococcus aureus […] and Gram-negative: Escherichia coli 520, Escherichia coli 600, Klebsiella pneumoniae 510 and Pseudomonas aeruginosa 659 were obtained from the collection of the Department of Pharmaceutical Microbiology, Medical University of Warsaw, Poland and they were isolated from different biological materials taken from the patients hospitalized in the Warsaw Medical University hospitals. […] MIC was determined by the two-fold serial broth microdilution method in 96-well microtitration plates using Mueller-Hinton II broth medium (Becton Dickinson, Franklin Lakes, NJ, USA). The final inoculum of all studied bacteria was 10^6 CFU/mL (colony forming unit per milliliter). The stock solution of tested compounds was prepared in dimethyl sulfoxide (DMSO) and diluted to a maximum of 1% of solvent content with a sterile medium.

[5] = tested on: S. epidermidis ATCC 35984; assay: MIC broth microdilution, standard strain; type: cell-based; conditions: Staphylococcus epidermidis, ATCC35984; S. epidermidis ATCC 35984, standard strain, 19 h at 35 °C; read-out: minimal inhibitory concentration (MIC)
Experimental: as §2

[6] = tested on: S. aureus ATCC 6538; assay: MIC broth microdilution, standard strain; type: cell-based; conditions: Staphylococcus aureus, ATCC6538; S. aureus ATCC 6538, standard strain, 19 h at 35 °C; read-out: minimal inhibitory concentration (MIC)
Experimental: as §2

[7] = tested on: S. aureus ATCC 29213; assay: MIC broth microdilution, standard strain; type: cell-based; conditions: Staphylococcus aureus, ATCC29213; S. aureus ATCC 29213, standard strain, 19 h at 35 °C; read-out: minimal inhibitory concentration (MIC)
Experimental: as §2

[8] = 19 h, clinical (hospital) strains, read-out: MIC values, range
[9] = all clinical Staphylococci panels: S. aureus (T5592; T5591) and S. epidermidis (5253; 4243), read-out: MIC values
[10] = 19 h, against Gram-positive clinical strains, read-out: MIC values, range

Row | Compound | MIC [1, 8] | MIC [1, 9] | IC50 [2] | IC50 [3] | MIC [4] | MIC [5] | MIC [6] | MIC [7] | MIC [1, 10]
1 | CC1=C(C)C2(C)CC1(C)C1C(=O)N(Nc3nnnn3-c3cccc(C(F)(F)F)c3)C(=O)C12 (stereo not shown) [Compound 1, 4,5,6,7-Tetramethyl-2-((1-(3-(trifluoromethyl)phenyl)-1H-tetrazol-5-yl)amino)-3a,4,7,7a-tetrahydro-1H-4,7-methanoisoindole-1,3(2H)-dione] | 0.8 to 3.2 µg/mL (≈ 1.79 to 7.17 µM) | 0.8 µg/mL (≈ 1.79 µM) | 71.8 µM | 142 µM | 3.2 µg/mL (≈ 7.17 µM) | 0.2 µg/mL (≈ 0.448 µM) | 0.2 µg/mL (≈ 0.448 µM) | 0.2 µg/mL (≈ 0.448 µM) | 
2 | CC1=C(C)C2(C)CC1(C)C1C(=O)N(Nc3nnnn3-c3ccccc3Cl)C(=O)C12 (stereo not shown) [Compound 2, 2-((1-(2-Chlorophenyl)-1H-tetrazol-5-yl)amino)-4,5,6,7-tetramethyl-3a,4,7,7a-tetrahydro-1H-4,7-methanoisoindole-1,3(2H)-dione] | 0.8 to 3.2 µg/mL (≈ 1.94 to 7.75 µM) | 0.8 µg/mL (≈ 1.94 µM) | 90.9 µM | 141 µM | 3.2 µg/mL (≈ 7.75 µM) | 0.4 µg/mL (≈ 0.969 µM) | 0.4 µg/mL (≈ 0.969 µM) | 0.8 µg/mL (≈ 1.94 µM) | 
3 | CC1=C(C)C2(C)CC1(C)C1C(=O)N(Nc3nnnn3-c3ccccc3Br)C(=O)C12 (stereo not shown) [Compound 3, 2-((1-(2-Bromophenyl)-1H-tetrazol-5-yl)amino)-4,5,6,7-tetramethyl-3a,4,7,7a-tetrahydro-1H-4,7-methanoisoindole-1,3(2H)-dione] | 0.8 to 3.2 µg/mL (≈ 1.75 to 7 µM) | 0.8 µg/mL (≈ 1.75 µM) | 99.3 µM | 134 µM | 2 µg/mL (≈ 4.37 µM) | 0.2 µg/mL (≈ 0.437 µM) | 0.2 µg/mL (≈ 0.437 µM) | 0.2 µg/mL (≈ 0.437 µM) | 
4 | CC1=C(C)C2(C)CC1(C)C1C(=O)N(Nc3nnnn3-c3ccc([N+](=O)[O-])cc3)C(=O)C12 (stereo not shown) [Compound 4, 4,5,6,7-Tetramethyl-2-((1-(4-nitrophenyl)-1H-tetrazol-5-yl)amino)-3a,4,7,7a-tetrahydro-1H-4,7-methanoisoindole-1,3(2H)-dione] |  |  |  |  | 32 µg/mL (≈ 75.6 µM) | 32 µg/mL (≈ 75.6 µM) | 32 µg/mL (≈ 75.6 µM) | 16 µg/mL (≈ 37.8 µM) | 2 to 32 µg/mL (≈ 4.72 to 75.6 µM)
5 | CC1=C(C)C2(C)CC1(C)C1C(=O)N(Nc3nnnn3-c3ccccc3)C(=O)C12 (stereo not shown) [Compound 6, 4,5,6,7-Tetramethyl-2-((1-phenyl-1H-tetrazol-5-yl)amino)-3a,4,7,7a-tetrahydro-1H-4,7-methanoisoindole-1,3(2H)-dione] |  |  |  |  | 16 µg/mL (≈ 42.3 µM) | 4 µg/mL (≈ 10.6 µM) | 2 µg/mL (≈ 5.28 µM) | 4 µg/mL (≈ 10.6 µM) | 2 to 32 µg/mL (≈ 5.28 to 84.6 µM)
6 | CC(C)C12C=CC(C)(CC1)C1C(=O)N(Nc3nnnn3-c3ccc([N+](=O)[O-])cc3)C(=O)C12 (stereo not shown) [Compound 8, 4-Isopropyl-7-methyl-2-((1-(4-nitrophenyl)-1H-tetrazol-5-yl)amino)-3a,4,7,7a-tetrahydro-1H-4,7-ethanoisoindole-1,3(2H)-dione] |  |  |  |  | 16 µg/mL (≈ 36.6 µM) | 16 µg/mL (≈ 36.6 µM) | 8 µg/mL (≈ 18.3 µM) | 8 µg/mL (≈ 18.3 µM) | 2 to 32 µg/mL (≈ 4.57 to 73.1 µM)
7 | CC(C)C12C=CC(C)(CC1)C1C(=O)N(Nc3nnnn3-c3ccccc3Br)C(=O)C12 (stereo not shown) [Compound 9, 2-((1-(2-Bromophenyl)-1H-tetrazol-5-yl)amino)-4-isopropyl-7-methyl-3a,4,7,7a-tetrahydro-1H-4,7-ethanoisoindole-1,3(2H)-dione] |  |  |  |  | 128 µg/mL (≈ 272 µM) | 64 µg/mL (≈ 136 µM) | 64 µg/mL (≈ 136 µM) | 64 µg/mL (≈ 136 µM) | 2 to 32 µg/mL (≈ 4.24 to 67.9 µM)
8 | Cc1ccc(-n2nnnc2NN2C(=O)C3C(C2=O)C2(C(C)C)C=CC3(C)CC2)cc1 (stereo not shown) [Compound 10, 4-Isopropyl-7-methyl-2-((1-(p-tolyl)-1H-tetrazol-5-yl)amino)-3a,4,7,7a-tetrahydro-1H-4,7-ethanoisoindole-1,3(2H)-dione] |  |  |  |  | 32 µg/mL (≈ 78.7 µM) | 8 µg/mL (≈ 19.7 µM) | 4 µg/mL (≈ 9.84 µM) | 8 µg/mL (≈ 19.7 µM) | 2 to 32 µg/mL (≈ 4.92 to 78.7 µM)

— PMC8745314, “Novel Tetrazole-Based Antimicrobial Agents Targeting Clinical Bacteria Strains: Exploring the Inhibition of Staphylococcus aureus DNA Topoisomerase IV and Gyrase” (International Journal of Molecular Sciences, 2021)
